Assay results as given in article PMC5011342, “A high throughput drug screening assay to identify compounds that promote oligodendrocyte differentiation using acutely dissociated and purified oligodendrocyte precursor cells” (BMC Research Notes, 2016).
Like-named read-outs stand apart in the source and are kept apart here.

Tests used:
[1] = test system: acutely dissociated and purified rat OPCs; assay: Acute OL differentiation assay (MBP expression/cell, immunofluorescent image quantification); assay type: cell-based; settings: for activation at 0.08 µM: 0.08 uM test compound, read-out: OL differentiation, 0.08 uM (% Quet)
Procedure, shortened: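 This acute differentiation assay used purified rat OPCs from postnatal day 6–7 pups, seeded into PDL/laminin-coated 96-well plates in differentiation medium lacking PDGF and FGF. Compounds were applied in quadruplicate after a 1–2 h preincubation at 37 °C, 10 % CO2, with 0.1 % DMSO negative and 40 ng/ml T3 positive controls in eight wells. After fixation on DIV4, anti-MBP immunofluorescence images yielded MBP expression/cell.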

expanded OPCs = assay: cells; settings: for 0.1 µM (% DMSO) / 1 µM (% DMSO) / 10 µM (% DMSO): alamarBlue viability of expanded OPCs; for 0.1 µM (% DMSO): compound at 0.1 µM; for 1 µM (% DMSO): compound at 1 µM; for 10 µM (% DMSO): compound at 10 µM; for viability at 0.1 µM / viability at 1 µM / viability at 10 µM: Rattus norvegicus, 72 h
Procedure, shortened: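 Toxicity screen: compounds added at 0.1, 1 and 10 µM to PDGF-AA-expanded OPCs in 96-well plates, 3-day incubation at 37 °C, 10% CO2, then alamarBlue 1:10 for 4 h with fluorescence readout. Results set screening doses of 10/2, 2/0.4 or 0.4/0.08 µM.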

[2] = Rattus norvegicus, 0.4 uM test compound, relative to quetiapine, sheet "All OLga data", read-out: OL differentiation, 0.4 uM (% Quet)
[3] = Rattus norvegicus, 2 uM test compound, relative to quetiapine, sheet "All OLga data", read-out: OL differentiation, 2 uM (% Quet)
[4] = read-out: 0.1 µM (% DMSO), alamarBlue viability of expanded OPCs, compound at 0.1 µM, sheet All Tox data
[5] = read-out: 1 µM (% DMSO), alamarBlue viability of expanded OPCs, compound at 1 µM, sheet All Tox data
[6] = read-out: 10 µM (% DMSO), alamarBlue viability of expanded OPCs, compound at 10 µM, sheet All Tox data
[7] = Rattus norvegicus, test compound at 2 uM, NCC library screen, sheet "All OLga data", relative to quetiapine, read-out: 2 uM (% Quet)
[8] = Rattus norvegicus, test compound at 10 uM, NCC library screen, sheet "All OLga data", relative to quetiapine, read-out: 10 uM (% Quet)
[9] = read-out: 0.1 µM (% DMSO), alamarBlue viability, NCC library compound at 0.1 µM, sheet "All Tox data"
[10] = read-out: 1 µM (% DMSO), alamarBlue viability, NCC library compound at 1 µM, sheet "All Tox data"
[11] = read-out: 10 µM (% DMSO), alamarBlue viability, NCC library compound at 10 µM, sheet "All Tox data"
[12] = Rattus norvegicus, 10 uM test compound, relative to quetiapine, sheet "All OLga data", read-out: OL differentiation, 10 uM (% Quet)
[13] = Rattus norvegicus, test compound at 2 uM, MBP expression relative to quetiapine, NCC library screen, sheet "All OLga data", read-out: 2 uM (% Quet)
[14] = Rattus norvegicus, test compound at 10 uM, MBP expression relative to quetiapine, NCC library screen, sheet "All OLga data", read-out: 10 uM (% Quet)
[15] = Rattus norvegicus, test compound at 0.4 uM, NCC library screen, sheet "All OLga data", relative to quetiapine, read-out: 0.4 uM (% Quet)
[16] = Rattus norvegicus, relative to quetiapine, sheet "All OLga data"

C[C@@H]1C[C@H]2[C@@H]3CCC4=CC(=O)C=C[C@]4(C)[C@@]3(F)[C@@H](O)C[C@]2(C)[C@@]1(O)C(=O)CO [Dexamethazone]
2 uM (% Quet) ([1]; test compound at 2 uM, MBP expression relative to quetiapine, NCC library screen, sheet "All OLga data"): -1.3 % Quet | 10 uM (% Quet) ([1]; test compound at 10 uM, MBP expression relative to quetiapine, NCC library screen, sheet "All OLga data"): -8.3 % Quet | 0.1 µM (% DMSO) (expanded OPCs; relative to DMSO control): 115.8 % DMSO | 1 µM (% DMSO) (expanded OPCs; relative to DMSO control): 108.1 % DMSO | 10 µM (% DMSO) (expanded OPCs; relative to DMSO control): 98.4 % DMSO

COc1ccc2c(c1)[C@]13CCCC[C@@H]1[C@H](C2)N(C)CC3 [Dextromethorphan]
activation at 0.4 µM [1, 2]: 10.5% | activation at 2 µM [1, 3]: 44.5% | viability at 0.1 µM (expanded OPCs; [4]): 82.6% | viability at 1 µM (expanded OPCs; [5]): 86.9% | viability at 10 µM (expanded OPCs; [6]): 59.6%

CN1C(=O)CN=C(c2ccccc2)c2cc(Cl)ccc21 [Diazepam]
activation at 2 µM ([1]; Rattus norvegicus, read-out: 2 uM (% Quet)): 3.8% | activation at 10 µM ([1]; Rattus norvegicus, read-out: 10 uM (% Quet)): -14.1% | viability at 0.1 µM (expanded OPCs; read-out: 0.1 µM (% DMSO)): 92.5% | viability at 1 µM (expanded OPCs; read-out: 1 µM (% DMSO)): 97.2% | viability at 10 µM (expanded OPCs; read-out: 10 µM (% DMSO)): 102%

CC1=NS(=O)(=O)c2cc(Cl)ccc2N1 [Diazoxide]
activation at 2 µM [1, 7]: -1.9% | activation at 10 µM [1, 8]: -7.1% | viability at 0.1 µM (expanded OPCs; [9]): 98.9% | viability at 1 µM (expanded OPCs; [10]): 86.5% | viability at 10 µM (expanded OPCs; [11]): 82.6%

O=C(O)C(Cl)Cl [Dichloroacetic Acid]
activation at 2 µM [1, 7]: 0.66% | activation at 10 µM [1, 8]: 13.7% | viability at 0.1 µM (expanded OPCs; [9]): 99.2% | viability at 1 µM (expanded OPCs; [10]): 83.6% | viability at 10 µM (expanded OPCs; [11]): 83.5%

O=C(O)Cc1ccccc1Nc1c(Cl)cccc1Cl [Diclofenac]
activation at 2 µM [1, 3]: 4.8% | activation at 10 µM [1, 12]: 3.4% | viability at 0.1 µM (expanded OPCs; [4]): 90.1% | viability at 1 µM (expanded OPCs; [5]): 95.5% | viability at 10 µM (expanded OPCs; [6]): 88.8%

Cc1onc(-c2c(Cl)cccc2Cl)c1C(=O)N[C@@H]1C(=O)N2[C@@H]1SC(C)(C)[C@@H]2C(=O)O [Dicloxacillin]
activation at 2 µM [1, 13]: -0.7% | activation at 10 µM [1, 14]: -16.9% | 0.1 µM (% DMSO) (expanded OPCs; relative to DMSO control): 93.5 % DMSO | 1 µM (% DMSO) (expanded OPCs; relative to DMSO control): 91.4 % DMSO | 10 µM (% DMSO) (expanded OPCs; relative to DMSO control): 76.5 % DMSO

CCN(CC)CCOC(=O)C1(C2CCCCC2)CCCCC1 [Dicyclomine]
activation at 0.4 µM [1, 15]: -5.5% | activation at 2 µM [1, 7]: 32.1% | 0.1 µM (% DMSO) (expanded OPCs; relative to DMSO control): 99.8 % DMSO | 1 µM (% DMSO) (expanded OPCs; relative to DMSO control): 87.7 % DMSO | 10 µM (% DMSO) (expanded OPCs; relative to DMSO control): 52.8 % DMSO

O=C(O)c1cc(-c2ccc(F)cc2F)ccc1O [Diflunisal]
activation at 0.4 µM [1, 15]: 0.3% | activation at 2 µM [1, 7]: 5.6% | 0.1 µM (% DMSO) (expanded OPCs; relative to DMSO control): 94.0 % DMSO | 1 µM (% DMSO) (expanded OPCs; relative to DMSO control): 92.0 % DMSO | 10 µM (% DMSO) (expanded OPCs; relative to DMSO control): 35.0 % DMSO

C[C@H]1O[C@@H](O[C@H]2[C@@H](O)C[C@H](O[C@H]3[C@@H](O)C[C@H](O[C@H]4CC[C@@]5(C)[C@H](CC[C@@H]6[C@@H]5C[C@@H](O)[C@]5(C)[C@@H](C7=CC(=O)OC7)CC[C@]65O)C4)O[C@@H]3C)O[C@@H]2C)C[C@H](O)[C@@H]1O [Digoxin]
activation at 2 µM [1, 7]: -10.3% | activation at 10 µM [1, 8]: 22.8% | viability at 0.1 µM (expanded OPCs; [9]): 103% | viability at 1 µM (expanded OPCs; [10]): 99.8% | viability at 10 µM (expanded OPCs; [11]): 106%

COc1ccc([C@@H]2Sc3ccccc3N(CCN(C)C)C(=O)[C@@H]2OC(C)=O)cc1 [Diltiazem]
activation at 0.4 µM [1, 15]: -12.2% | activation at 2 µM [1, 7]: -2.4% | 0.1 µM (% DMSO) (expanded OPCs; relative to DMSO control): 81.4 % DMSO | 1 µM (% DMSO) (expanded OPCs; relative to DMSO control): 67.2 % DMSO | 10 µM (% DMSO) (expanded OPCs; relative to DMSO control): 48.7 % DMSO

CN(C)CCOC(c1ccccc1)c1ccccc1 [Diphenhydramine]
activation at 2 µM [1, 3]: 3.5% | activation at 10 µM [1, 12]: 30% | viability at 0.1 µM (expanded OPCs; [4]): 79.3% | viability at 1 µM (expanded OPCs; [5]): 80% | viability at 10 µM (expanded OPCs; [6]): 62.4%

CCOC(=O)C1(c2ccccc2)CCN(CCC(C#N)(c2ccccc2)c2ccccc2)CC1 [Diphenoxylate]
activation at 0.08 µM [1, 16]: -3.7% | activation at 0.4 µM [1, 2]: 12% | viability at 0.1 µM (expanded OPCs; [9]): 85.6% | viability at 1 µM (expanded OPCs; [10]): 27.7% | viability at 10 µM (expanded OPCs; [11]): 23.2%

O=c1c(-c2ccccc2)c1-c1ccccc1 [Diphenylcyclopropenone]
activation at 0.4 µM [1, 2]: 8.6% | viability at 0.1 µM (expanded OPCs; [4]): 73.9% | viability at 1 µM (expanded OPCs; [5]): 65% | viability at 10 µM (expanded OPCs; [6]): 11.7%

OCCN(CCO)c1nc(N2CCCCC2)c2nc(N(CCO)CCO)nc(N3CCCCC3)c2n1 [Dipyridamole]
activation at 2 µM [1, 7]: 13.5% | activation at 10 µM [1, 8]: -27.3% | 0.1 µM (% DMSO) (expanded OPCs; relative to DMSO control): 107.4 % DMSO | 1 µM (% DMSO) (expanded OPCs; relative to DMSO control): 102.2 % DMSO | 10 µM (% DMSO) (expanded OPCs; relative to DMSO control): 87.5 % DMSO

CC(C)N(CCC(C(N)=O)(c1ccccc1)c1ccccn1)C(C)C (stereo not drawn) [Disopyramide]
activation at 2 µM [1, 13]: -10.1% | activation at 10 µM [1, 14]: -11.2% | 0.1 µM (% DMSO) (expanded OPCs; relative to DMSO control): 89.6 % DMSO | 1 µM (% DMSO) (expanded OPCs; relative to DMSO control): 92.1 % DMSO | 10 µM (% DMSO) (expanded OPCs; relative to DMSO control): 88.7 % DMSO

O=C1c2c(O)cc(O)cc2OC(c2ccc(O)c(O)c2)C1O (stereo not drawn) [Distylin]
OL differentiation, 2 uM (% Quet) ([1]; 2 uM test compound, relative to quetiapine, sheet "All OLga data"): 7.2 % Quet | OL differentiation, 10 uM (% Quet) ([1]; 10 uM test compound, relative to quetiapine, sheet "All OLga data"): -26.1 % Quet | 0.1 µM (% DMSO) (expanded OPCs; sheet All Tox data): 109.5 % DMSO | 1 µM (% DMSO) (expanded OPCs; sheet All Tox data): 92.1 % DMSO | 10 µM (% DMSO) (expanded OPCs; sheet All Tox data): 99.3 % DMSO

CCN(CC)C(=S)SSC(=S)N(CC)CC [Disulfiram]
activation at 0.4 µM [1, 2]: -180% | viability at 0.1 µM (expanded OPCs; [4]): 22.6% | viability at 1 µM (expanded OPCs; [5]): 18.1% | viability at 10 µM (expanded OPCs; [6]): 13.8%

CC(=O)O[C@@]12CO[C@@H]1C[C@H](O)[C@@]1(C)C(=O)[C@H](O)C3=C(C)[C@@H](OC(=O)[C@H](O)[C@@H](NC(=O)OC(C)(C)C)c4ccccc4)C[C@@](O)([C@@H](OC(=O)c4ccccc4)[C@H]21)C3(C)C [Docetaxel]
activation at 0.08 µM [1, 16]: -94.4% | activation at 0.4 µM [1, 2]: -105% | viability at 0.1 µM (expanded OPCs; [4]): 39.1% | viability at 1 µM (expanded OPCs; [5]): 38.8% | viability at 10 µM (expanded OPCs; [6]): 47.6%

CN(CCOc1ccc(NS(C)(=O)=O)cc1)CCc1ccc(NS(C)(=O)=O)cc1 [Dofetilide, reference compound]
activation at 2 µM [1, 7]: 19.4% | activation at 10 µM [1, 8]: 31.8% | EC50 ([1]; Rattus norvegicus, average EC50 for induction of OL differentiation from independent biological replicates, eight concentrations): 14 µM | hit in OL differentiation assay, MRF-TMC ([1]; ● = confirmed hit in this paper's assay): ● | viability at 0.1 µM (expanded OPCs; [9]): 96.1% | viability at 1 µM (expanded OPCs; [10]): 98% | viability at 10 µM (expanded OPCs; [11]): 122%

O=C(O[C@@H]1C[C@@H]2C[C@H]3C[C@H](C1)N2CC3=O)c1c[nH]c2ccccc12 [Dolasetron]
activation at 2 µM [1, 7]: 4.6% | activation at 10 µM [1, 8]: 18.1% | viability at 0.1 µM (expanded OPCs; [9]): 81% | viability at 1 µM (expanded OPCs; [10]): 81.8% | viability at 10 µM (expanded OPCs; [11]): 63.4%
